Experimental data from patent US5134137A, “Cephalosporin antibiotics” (The Upjohn Company, priority 1990, dated 1992).
In brackets after ≈: the same amount, converted by molar mass. Read-outs that look alike come from different tables or passages of the source.

Legend:
Type in all cases: cell-based
[1] = tested on: Corynebacterium pyogenes; test: MIC, agar dilution, Corynebacterium pyogenes; conditions: strain 213-2; read-out: MIC
Procedure: (§1) Stock solution of each test antibiotic compound were prepared to have a concentration of 2 mg. of the test compound per milliliter in sterile water of 0.1M ammonium acetate solution. The amount of each compound used was adjusted for base compound activity as calculated from the purity data for the selected batch of compound.
(§2) The dilution procedure described by Washington and Sutter [Manual of Clinical Microbiology, 3rd, Edit. (Lennett, E. H. et al, Eds.), pp. 453-458 (1980), American Society for Microbiology, Washington, D.C.] was modified so that serial concentrations of 128 to 0.0625 microgram/ml. in sterile water was obtained. Then 1.5 ml. aliquots of these test antibiotic dilution mixtures are added to 13.5 molten (50° C.) Mueller-Hinton agar. Each resulting mixture is poured into 15×100 mm, sterile Petri plates and allowed to dry at room temperature overnight.
(§3) Test bacterial cultures are maintained at -70° C. on glass beads. [See R. J. Yancey, Jr. et al, Amer. Jr. of Vet. Research, 48, No. 7, pp. 1050-1053, (1987)]. At least one bacteria-laden bead per culture is dropped into one ml. of brain heart infusion (BHI) broth for overnight culture at 37° C. in 5% V/V carbon dioxide in air atmosphere.
(§4) On the data of assay, 2 to 8 drops of the bacterial broth cultures are transferred to fresh BHI broth (1 ml.) and the mixture is incubated for 4 to 6 hours at 37° C. in a 5% V/V carbon dioxide in air atmosphere. The resulting cultures are then diluted to match a 0.5 MacFarland standard and further diluted 1:20 V/V with sterile saline solution.
(§5) A 0.001 ml. drop of the resulting mixture, containing approximately 10^3 to 10^4 colony forming units (CFU) of each test bacteria organism, is dispensed onto the surface of the test antibiotic compound test plates with a Steer's type replicator. The resulting innoculated plates are incubated 16 to 18 hours at 37° C. with a carbon dioxide atmosphere.
(§6) Stock solutions of each test antibiotic compound were prepared to have a concentration of 2 mg. of the test compound per milliliter in sterile water of 0.1M ammonium acetate solution. The amount of each compound used was adjusted for base compound activity as calculated from the purity data for the selected batch of compound.
(§7) The dilution procedure described by Washington and Sutter [Manual of Clinical Microbiology, 3rd, Edit. (Lennett, E. H. et al, Eds.), pp. 453-458 (1980), American Society for Microbiology, Washington, D.C.] was modified so that serial concentrations of 128 to 0.0625 microgram/ml. in sterile water was obtained. Then 1.5 ml. aliquots of these test antibiotic dilution mixtures are added to 13.5 molten (50° C.) Mueller-Hinton agar. Each resulting mixture is poured into 15×100 mm. sterile Petri plates and allowed to dry at room temperature overnight.
(§8) The dilution procedure described by Washington and Sutter [Manual of Clinical Microbiology, 3rd, Edit. (Lennett, E. H. et al, Eds.), pp. 453-458 (1980), American Society for Microbiology. Washington, D.C.] was modified so that serial concentrations of 128 to 0.0625 microgram/ml. in sterile water was obtained. Then 1.5 ml. aliquots of these test antibiotic dilution mixtures are added to 13.5 molten (50° C.) Mueller-Hinton agar. Each resulting mixture is poured into 15×100 mm. sterile Petri plates and allowed to dry at room temperature overnight.
(§9) Test bacterial culture are maintained at -70° C. on glass beads. [See R. J. Yancey, Jr. et al, Amer. Jr. of Vet. Research, 48, No. 7, pp. 1050-1053, (1987)]. At least one bacteria-laden bead per culture is dropped into one ml. of brain heart infusion (BHI) broth for overnight culture at 37° C. in 5% V/V carbon dioxide in air atmosphere.
(§10) On the day of assay, 2 to 8 drops of the bacterial broth cultures are transferred to fresh BHI broth (1 ml.) and the mixture is incubated for 4 to 6 hours at 37° C. in a 5% V/V carbon dioxide in air atmosphere. […]

[2] = tested on: Streptococcus dysgalactiae; test: MIC, agar dilution, Streptococcus dysgalactiae; conditions: Streptococcus dysgalactiae; strain UC251; read-out: MIC
Procedure: as §1, §2, §3, §4, §5, §6, §7, §8, §9, §10

[3] = tested on: Bordetella bronchiseptica; test: MIC, agar dilution, Bordetella bronchiseptica; conditions: Bordetella bronchiseptica; strain UC6313; read-out: MIC
Procedure: as §1, §2, §3, §4, §5, §6, §7, §8, §9, §10

[4] = tested on: Pseudomonas aeruginosa; test: MIC, agar dilution, Pseudomonas aeruginosa; conditions: Pseudomonas aeruginosa, ATCC27853; strain ATCC 27853; read-out: MIC
Procedure: as §1, §2, §3, §4, §5, §6, §7, §8, §9, §10

[5] = tested on: Pasteurella multocida; test: MIC, agar dilution, Pasteurella multocida; conditions: Pasteurella multocida; strain UC9581; read-out: MIC
Procedure: as §1, §2, §3, §4, §5, §6, §7, §8, §9, §10

[6] = tested on: Enterococcus faecalis; test: MIC, agar dilution, Enterococcus faecalis; conditions: Enterococcus faecalis; strain UC694; read-out: MIC
Procedure: as §6, §2, §3, §4, §5, §1, §7, §8, §9, §10

[7] = tested on: Staphylococcus aureus; test: MIC, agar dilution, Staphylococcus aureus; conditions: Staphylococcus aureus, read-out: MIC
Procedure: as §1, §2, §3, §4, §5, §6, §7, §8, §9, §10

[8] = tested on: Streptococcus bovis; test: MIC, agar dilution, Streptococcus bovis; conditions: Streptococcus equinus; strain UC6281; read-out: MIC
Procedure: as §1, §2, §3, §4, §5, §6, §7, §8, §9, §10

[9] = tested on: Enterococcus faecium; test: MIC, agar dilution, Enterococcus faecium; conditions: Enterococcus faecium; strain UC241; read-out: MIC
Procedure: as §6, §2, §3, §4, §5, §1, §7, §8, §9, §10

[10] = tested on: Pasteurella hemolytica; test: MIC (minimum inhibitory concentration), agar dilution, Pasteurella hemolytica; conditions: Pasteurella, read-out: MIC
Procedure: as §1, §2, §3, §4, §5, §6, §7, §8, §9, §10

[11] = tested on: Salmonella typhimurium; test: MIC, agar dilution, Salmonella typhimurium; conditions: Salmonella enterica, read-out: MIC
Procedure: as §1, §2, §3, §4, §5, §6, §7, §8, §9, §10

[12] = tested on: Streptococcus uberis; test: MIC, agar dilution, Streptococcus uberis; conditions: Streptococcus uberis, read-out: MIC
Procedure: as §1, §2, §3, §4, §5, §6, §7, §8, §9, §10

[13] = tested on: Micrococcus luteus; test: MIC, agar dilution, Micrococcus luteus; conditions: Micrococcus luteus; strain UC130; read-out: MIC
Procedure: as §1, §2, §3, §4, §5, §6, §7, §8, §9, §10

[14] = tested on: Streptococcus suis; test: MIC, agar dilution, Streptococcus suis; conditions: Streptococcus suis; strain 650-2; read-out: MIC
Procedure: as §1, §2, §3, §4, §5, §6, §7, §8, §9, §10

[15] = tested on: Streptococcus agalactiae; test: MIC, agar dilution, Streptococcus agalactiae; conditions: Streptococcus agalactiae, read-out: MIC
Procedure: as §1, §2, §3, §4, §5, §6, §7, §8, §9, §10

[16] = tested on: Escherichia coli; test: MIC, agar dilution, Escherichia coli; conditions: Escherichia coli, read-out: MIC
Procedure: as §1, §2, §3, §4, §5, §6, §7, §8, §9, §10

[17] = tested on: Salmonella choleraesuis; test: MIC, agar dilution, Salmonella choleraesuis; conditions: Salmonella enterica, read-out: MIC
Procedure: as §1, §2, §3, §4, §5, §6, §7, §8, §9, §10

[18] = TYPHIMURIUM / UC6162, strain UC6162
[19] = TYPHIMURIUM / UC6164, strain UC6164
[20] = CHOLERAESUIS / UC6073, strain UC6073
[21] = CHOLERAESUIS / UC6077, strain UC6077

Row | Structure (SMILES) | MIC [1] [µg/mL] | MIC [2] [µg/mL] | MIC [3] [µg/mL] | MIC [4] [µg/mL] | MIC [5] [µg/mL] | MIC [6] [µg/mL] | MIC ([7]; strain UC6093) [µg/mL] | MIC ([7]; strain UC6097) [µg/mL] | MIC ([7]; strain UC9203) [µg/mL] | MIC [8] [µg/mL] | MIC [9] [µg/mL] | MIC ([10]; strain UC6531) [µg/mL] | MIC ([10]; strain UC6532) [µg/mL] | MIC ([10]; strain UC9582) [µg/mL] | MIC [11, 18] [µg/mL] | MIC [11, 19] [µg/mL] | MIC ([12]; strain UC3946) [µg/mL] | MIC ([12]; strain UC6159) [µg/mL] | MIC [13] [µg/mL] | MIC [14] [µg/mL] | other results
1 | CCCSSCC1=C(C(=O)O)N2C(=O)[C@@H](NC(=O)/C(=N\OC)c3csc(N)n3)[C@H]2SC1 [Example 11] | > 32 | ≤ 0.06 | 32 (≈ 63.5 µM) | > 32 | 32 (≈ 63.5 µM) | > 32 | 8 (≈ 15.9 µM) | 8 (≈ 15.9 µM) | 8 (≈ 15.9 µM) | > 32 | > 32 | 0.5 (≈ 0.993 µM) | 0.5 (≈ 0.993 µM) | 0.5 (≈ 0.993 µM) | 16 (≈ 31.8 µM) | 32 (≈ 63.5 µM) | 0.25 (≈ 0.496 µM) | 16 (≈ 31.8 µM) | 0.5 (≈ 0.993 µM) | ≤ 0.06 | MIC ([15]; strain UC3947): 2 µg/mL (≈ 3.97 µM); MIC ([15]; strain UC6892): > 32 µg/mL; MIC ([16]; strain UC3784): 16 µg/mL (≈ 31.8 µM); MIC ([16]; strain UC6720): 32 µg/mL (≈ 63.5 µM); MIC ([16]; strain UC9670): 16 µg/mL (≈ 31.8 µM); MIC [17, 20]: 32 µg/mL (≈ 63.5 µM); MIC [17, 21]: > 32 µg/mL
2 | CCCCSSCC1=C(C(=O)O)N2C(=O)[C@@H](NC(=O)/C(=N\OC)c3csc(N)n3)[C@H]2SC1 [Example 12] | 32 (≈ 61.8 µM) | ≤ 0.06 | > 32 | > 32 | 8 (≈ 15.5 µM) | > 32 | 4 (≈ 7.73 µM) | 4 (≈ 7.73 µM) | 4 (≈ 7.73 µM) | > 32 | > 32 | 0.5 (≈ 0.966 µM) | 0.5 (≈ 0.966 µM) | 0.5 (≈ 0.966 µM) | 16 (≈ 30.9 µM) | 32 (≈ 61.8 µM) | 0.13 (≈ 0.251 µM) | 8 (≈ 15.5 µM) | ≤ 0.06 | ≤ 0.06 | MIC ([15]; strain UC3947): 2 µg/mL (≈ 3.86 µM); MIC ([15]; strain UC6892): > 32 µg/mL; MIC ([16]; strain UC3784): 8 µg/mL (≈ 15.5 µM); MIC ([16]; strain UC6720): 16 µg/mL (≈ 30.9 µM); MIC ([16]; strain UC9670): 8 µg/mL (≈ 15.5 µM); MIC [17, 20]: 32 µg/mL (≈ 61.8 µM); MIC [17, 21]: 32 µg/mL (≈ 61.8 µM)
3 | CCC(C)SSCC1=C(C(=O)O)N2C(=O)[C@@H](NC(=O)/C(=N\OC)c3csc(N)n3)[C@H]2SC1 (some centres unmarked) [Example 13] | 32 (≈ 61.8 µM) | ≤ 0.06 | > 32 | > 32 | 8 (≈ 15.5 µM) | > 32 | 4 (≈ 7.73 µM) | 2 (≈ 3.86 µM) | 2 (≈ 3.86 µM) | > 32 | > 32 | 1 (≈ 1.93 µM) | 0.13 (≈ 0.251 µM) | 0.25 (≈ 0.483 µM) | 16 (≈ 30.9 µM) | 16 (≈ 30.9 µM) | 0.13 (≈ 0.251 µM) | 8 (≈ 15.5 µM) | 0.13 (≈ 0.251 µM) | ≤ 0.06 | MIC ([15]; strain UC3947): 2 µg/mL (≈ 3.86 µM); MIC ([15]; strain UC6892): > 32 µg/mL; MIC ([16]; strain UC3784): 8 µg/mL (≈ 15.5 µM); MIC ([16]; strain UC6720): 16 µg/mL (≈ 30.9 µM); MIC ([16]; strain UC9670): 8 µg/mL (≈ 15.5 µM); MIC [17, 20]: 32 µg/mL (≈ 61.8 µM); MIC [17, 21]: > 32 µg/mL
4 | CO/N=C(\C(=O)N[C@@H]1C(=O)N2C(C(=O)O)=C(CSSCc3ccccc3)CS[C@H]12)c1csc(N)n1 [Example 14] | 0.25 (≈ 0.453 µM) | ≤ 0.06 | > 32 | > 32 | 2 (≈ 3.63 µM) | > 32 | 1 (≈ 1.81 µM) | 1 (≈ 1.81 µM) | 1 (≈ 1.81 µM) | ≤ 0.06 | > 32 | 0.5 (≈ 0.906 µM) | 0.25 (≈ 0.453 µM) | 2 (≈ 3.63 µM) | 16 (≈ 29 µM) | 16 (≈ 29 µM) | ≤ 0.06 | 8 (≈ 14.5 µM) | ≤ 0.06 | ≤ 0.06 | MIC ([15]; strain UC6892): ≤ 0.06 µg/mL; MIC ([16]; strain UC3784): 8 µg/mL (≈ 14.5 µM); MIC ([16]; strain UC6720): 16 µg/mL (≈ 29 µM); MIC ([16]; strain UC9670): 8 µg/mL (≈ 14.5 µM); MIC [17, 20]: 16 µg/mL (≈ 29 µM); MIC [17, 21]: 32 µg/mL (≈ 58 µM)
